Assay results from publication PMC4280171, “Novel PDE4 Inhibitors Derived from Chinese Medicine Forsythia” (PLoS ONE, 2014).
Read-outs that look alike come from different tables or passages of the source.

Tests used:
PDE5 = target: T1, PDE5 (Homo sapiens, UniProt O76074); experiment: PDE-Glo phosphodiesterase activity assay, PDE5; type: biochemical; conditions: 25 mU purified enzyme per reaction
T1 construct: purchased Millipore
Method: (§1) For the PDE activity assay, all test compounds were diluted in DMSO with final concentrations in each assay of 100, 10, 1, 0.1, 0.01, 0.001, 0.0001 µM. For the PDE4 activity assay, 10 mU of purified PDE4 (Millipore) was used per reaction. Compounds 6, 7, 9 and 13 (blue underline) were further tested in PDE3, 5, 7, 10 activity assays in which 25 mU of purified enzyme was used per reaction. Summary of compound IC50 in lower right corner. TEXT PRINTED IN THE PICTURE: Compound 6: PDE3: >100uM; PDE4: 90nM; PDE5: 80uM; PDE7: >100uM; PDE10: >100uM | Compound 7: PDE3: >100uM; PDE4: 8uM; PDE5: >100uM; PDE7: >100uM; PDE10: >100uM | Compound 9: PDE3: >100uM; PDE4: 60nM; PDE5: >100uM; PDE7: >100uM; PDE10: >100uM | Compound 13: PDE3: >100uM; PDE4: 10nM; PDE5: 90uM; PDE7: >100uM; PDE10: >100uM
(§2) A PDE activity assay was carried out using the PDE-Glo Phosphodiesterase Assay per manufacturer’s instruction (Promega). Briefly, 5 ul of 1X PDE-Glo Reaction buffer containing 10 mU of purified human recombinant PDE4A4 (Millipore) was added to 96 well plate. All test compounds were dissolved in DMSO and a serial dilution (110) of the inhibitors were performed using 1X PDE-Glo Reaction buffer. 7.5 ul of test compounds were added to the PDE enzyme with the final concentrations in each assay of 100, 10, 1, 0.1, 0.01, 0.001, 0.0001 µM, and incubated at room temperature for 10 min. To initiate the PDE reaction, 12.5 ul of 2 µM cAMP was added to each reaction, mixed well and incubate at room temperature for 10 min. The reactions were terminated using 12.5 ul of PDE-Glo Termination Buffer. 12.5 ul of PDE-Glo Detection Solution containing PDE-Glo Detection Buffer and Protein Kinase A was added to each reaction. The reactions were carried at room temperature for 20 min. 50 ul of Kinase-Glo Reagent was then added to each reaction, mixed well, and incubate for 10 minutes at room temperature. The chemical luminescence signals were measured, quantified and graphed. Compounds 6, 7, 9 and 13 were further tested similarly using 25 mU purified PDE3, 5, 7, 10 (Millipore) enzyme.

LPS stimulated PBMC = experiment: TNF secretion in LPS stimulated PBMC (ELISA); type: cell-based; conditions: Homo sapiens, primed with compound 3 h, LPS 1 ng/ml 8 h
Method: (§3) Figure 4 Tested compounds reduce TNF secretion in LPS stimulated mouse RAW264.7 and human PBMCs. A. 5×10^5 RAW264.7 cells were seeded in 96 wells for 18 h. Cells were primed with compounds at different concentration for 3 h before treated with LPS (1 ng/ml) for additional 8 h. TNF cytokine releases were monitored by ELISA. B. PBMC (0.2 ml at 1×10^5/ml) were primed with compounds at different concentration for 3 h before treated with LPS (1 ng/ml) for additional 8 h. TNF cytokine releases were monitored by ELISA. % of TNF secretion were calculated and graphed. C. Summary of compound IC50. The data represent n = 3–6 experiments. TEXT PRINTED IN THE PICTURE: (C) C6: RAW 264.7: 400nM; PBMC: 90nM | (C) C7: RAW 264.7: 8uM; PBMC: 10uM | (C) C9: RAW 264.7: 100nM; PBMC: 80nM | (C) C13: RAW 264.7: 70nM; PBMC: 25nM
(§4) 5×10^5 RAW264.7 cells were seeded in 96 wells for 18 h. Cells were primed with compounds at different concentration for 3 h before treated with LPS (1 ng/ml) for additional 8 h. TNF cytokine releases were monitored by ELISA. PBMC (0.2 ml at 1×10^5/ml) were primed with compounds at different concentration for 3 h before treated with LPS (1 ng/ml) for additional 8 h. TNF cytokine releases were monitored by ELISA. % of TNF secretion were calculated and graphed.

[1] = test system: C57/BL6 mice given LPS (E. coli, 100 µg i.p.); experiment: LPS septic shock model; type: in vivo, mouse; conditions: for ID50 IL-6 / inhibitory dose [ID50] TNF: i.p. 10 min before LPS 100 ug i.p., blood 2 h later
Method: Mice were euthanized 2 h later using pentobarbital where blood was collected and assayed for IL6 and TNF cytokine levels. […] In a separate experiment, a brief pharmacokinetic study was performed where PDE4 inhibitors (1 mg/kg, i.p.) were given to mice 18 h before LPS administration (E. coli, 100 ug i.p.).
Figure 6 PDE4 inhibitors lessen cytokine storm induced by LPS septic shock. C57/BL6 mice were administered i.p. nothing (CON), vehicle, 10 ug/kg, 100 ug/kg, 1 mg/kg or 10 mg/kg of compounds 6, 7 or 9. Mice were given LPS (E. coli, 100 µg) 10 min later through an i.p. injection. 2 h later mice were euthanized using pentobarbital and blood was collected for IL-6 and TNF measurements. Shown in panel A–B is the % inhibition of cytokine levels as a function of drug dose. The data represent n = 3 mice/group at each dose. C57/BL6 mice were also pretreated with compound 5, 6, 7 or 9 at 1 mg/kg. Mice were given LPS (E. coli, 100 µg) 18 h later through an i.p. injection. 2 h later the mice were euthanized using pentobarbital and blood was collected for IL-6 and TNF measurements (C–D).
Compounds were diluted in PBS and various amounts (0.01, 0.1, 1 and 10 mg/kg) of compounds were administered to mice though an i.p. injection. 10 min later, mice were given 100 µg of LPS (E. coli) through an i.p. injection. 2 h later, mice were euthanized. Plasma was collected and processed for cytokine assays.

[2] = test system: LPS stimulated RAW264.7 cells; experiment: TNF secretion in LPS stimulated RAW264.7 cells (ELISA); type: cell-based; conditions: Mus musculus, primed with compound 3 h, LPS 1 ng/ml 8 h, read-out: IC50 TNF secretion, RAW 264.7
Method: as §3, §4

[3] = test system: murine models of inflammation; conditions: parenteral and oral application; for severity of tissue injury: in each of the models
[4] = test system: C57/BL6 mice challenged with H1N1 (A/PR/8/34); experiment: H1N1 pneumonia model; type: in vivo, mouse; conditions: 30 µg/ml in drinking water, estimated dose 5 mg/kg/d; for survival of mice infected with H1N1: versus diluent
PDE3 = experiment: PDE-Glo phosphodiesterase activity assay, PDE3; type: biochemical; conditions: 25 mU purified enzyme per reaction
Method: as §1, §2

PDE7 = experiment: PDE-Glo phosphodiesterase activity assay, PDE7; type: biochemical; conditions: 25 mU purified enzyme per reaction
Method: as §1, §2

PDE4 [5] = experiment: PDE-Glo phosphodiesterase activity assay, PDE4; type: biochemical, human; conditions: for IC50: 10 mU purified PDE4 per reaction, PDE-Glo assay
Method: Compounds 1–14 (Fig. 2) were tested in vitro using PDE-glo phosphodiesterase assay (Promega, Madison, WI). Briefly, all the compounds were diluted in DMSO, and the final concentrations in each assay were 100, 10, 1, 0.1, 0.01, 0.001, 0.0001 µM. For the PDE4 activity assay, 10 mU of purified PDE4D (Millipore) was used per reaction. […] PDE4 = 8 µM.
as §1, §2

[6] = test system: LPS stimulated RAW264.7 and PBMC cells; experiment: TNF secretion in LPS stimulated cells, RAW264.7 and PBMC; type: cell-based, mouse; human; conditions: Mus musculus
Method: Compound 6, 7, 9 and 13 were also tested in LPS stimulated RAW264.7 (Fig. 4A) and PBMC (Fig. 4B) cells to evaluate their ability to suppress TNF secretion. […] PDE4. […] TNF ranging from 25–75 nM (Fig. 4C).
as §3, §4

PDE10 = target: T2, PDE10 (Homo sapiens, UniProt Q9Y233); experiment: PDE-Glo phosphodiesterase activity assay, PDE10; type: biochemical; conditions: 25 mU purified enzyme per reaction
T2 construct: purchased Millipore
T2 sequence (Q9Y233 whole entry): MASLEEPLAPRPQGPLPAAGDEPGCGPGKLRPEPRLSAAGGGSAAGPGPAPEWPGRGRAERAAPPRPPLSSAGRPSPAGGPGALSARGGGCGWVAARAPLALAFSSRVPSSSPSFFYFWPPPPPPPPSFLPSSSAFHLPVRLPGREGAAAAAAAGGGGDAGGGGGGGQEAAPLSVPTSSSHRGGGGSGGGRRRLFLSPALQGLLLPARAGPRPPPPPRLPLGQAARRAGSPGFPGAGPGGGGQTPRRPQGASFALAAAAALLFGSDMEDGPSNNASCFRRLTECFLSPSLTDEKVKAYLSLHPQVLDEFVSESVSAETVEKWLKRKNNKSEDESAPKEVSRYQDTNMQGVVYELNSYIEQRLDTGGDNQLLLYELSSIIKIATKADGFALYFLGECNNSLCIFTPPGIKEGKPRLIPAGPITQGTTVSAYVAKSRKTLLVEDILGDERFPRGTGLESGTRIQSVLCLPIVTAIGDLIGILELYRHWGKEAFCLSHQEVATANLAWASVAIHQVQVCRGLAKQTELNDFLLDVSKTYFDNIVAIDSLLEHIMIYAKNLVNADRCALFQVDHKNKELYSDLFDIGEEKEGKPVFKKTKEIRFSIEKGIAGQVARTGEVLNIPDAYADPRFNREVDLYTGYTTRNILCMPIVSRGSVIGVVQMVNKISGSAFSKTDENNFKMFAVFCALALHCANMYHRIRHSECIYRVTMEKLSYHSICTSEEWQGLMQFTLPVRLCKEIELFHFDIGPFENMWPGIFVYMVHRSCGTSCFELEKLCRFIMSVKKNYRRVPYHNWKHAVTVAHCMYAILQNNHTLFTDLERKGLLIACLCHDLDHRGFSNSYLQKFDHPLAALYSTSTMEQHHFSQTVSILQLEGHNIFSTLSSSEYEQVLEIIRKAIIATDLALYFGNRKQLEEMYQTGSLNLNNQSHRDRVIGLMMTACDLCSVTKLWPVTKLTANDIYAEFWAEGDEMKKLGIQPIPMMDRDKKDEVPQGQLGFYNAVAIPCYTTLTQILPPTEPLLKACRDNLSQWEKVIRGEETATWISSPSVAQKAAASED
Method: as §1, §2

PDE4 [7] = test system: PDE4; design: method as in PMID 15476679; conditions: selective inhibitors of PDE4 isolated from traditional Chinese medicines; cited from earlier work
[8] = RAW264.7, range over both cell types (and over the compounds named)

Row | Compound | IC50 (PDE5) [µM] | IC50 (LPS stimulated PBMC) [µM] | ID50 IL-6 [1] | inhibitory dose [ID50] TNF [1] | IC50 [2] [µM] | severity of tissue injury [3] | overt signs of distress in treated animals [3] | lavage cell counts, protein concentrations, and lavage cytokine IL-6 and TNF [4] | serum cytokines from H1N1-induced systematic inflammation [4] | signs of tissue injury (H&E, lung) [4] | survival of mice infected with H1N1 [4] | IC50 (PDE3) [µM] | IC50 (PDE7) [µM] | IC50 (PDE4 [5]) [µM] | times weaker in activity toward PDE4 compared with compound 6 (PDE4 [5]; in vitro) [times] | IC50 ([6]; RAW264.7, range over both cell types) [µM] | IC50 (PDE10) [µM] | IC50 [6, 8] [µM] | IC50 (PDE4 [7]) [µM] | serum TNF and IL-6 after 18 h lead time ([1]; 1 mg/kg i.p. 18 h before LPS 100 ug i.p.)
1 | COc1ccc([C@@H]2OC[C@H]3[C@@H]2CO[C@@H]3c2ccc(O[C@@H]3O[C@H](CO)[C@@H](O)[C@H](O)[C@H]3O)c(OC)c2)cc1OC [Compound 7, Forsythin] | > 100 | 10 | 0.1∼1 mg/kg | 0.01∼1 mg/kg | 8 | lessen severity of tissue injury | none of the animals treated with the agents exhibited overt signs of distress | decreased | significantly reduced | able to lessen signs of tissue injury | significantly improved the survival | > 100 | > 100 | 8 | > 80 | 8 to 10 | > 100 |  |  | 
2 | COc1ccc(C2OCC3(O)C(c4ccc(OC)c(OC)c4)OCC23)cc1OC (stereo not drawn) [Compound 6] | 80 | 0.09 | 0.1∼1 mg/kg | 0.01∼1 mg/kg | 0.4 | lessen severity of tissue injury | none of the animals treated with the agents exhibited overt signs of distress | decreased | significantly reduced | able to lessen signs of tissue injury | significantly improved the survival | > 100 | > 100 | 0.09 |  |  | > 100 | 0.025 to 0.4 |  | 
3 | COc1ccc(N2C(=O)C3N=NN(CC(=O)Nc4cc(C)cc(C)c4)C3C2=O)cc1OC (stereo not drawn) [Compound 13] | 90 | 0.025 |  |  | 0.07 | lessen severity of tissue injury | none of the animals treated with the agents exhibited overt signs of distress | decreased | significantly reduced | able to lessen signs of tissue injury | significantly improved the survival | > 100 | > 100 | 0.01 |  |  | > 100 | 0.025 to 0.4 |  | 
4 | COc1ccc([C@@H]2CC(=O)c3c(O)cc(O)cc3O2)cc1O [Hesperetin] |  |  |  |  |  |  |  |  |  |  |  |  |  |  |  |  |  |  | 10 to 100 | 
5 | COc1cc(O)c2c(=O)c(-c3ccc(O)cc3)coc2c1 [prunetin] |  |  |  |  |  |  |  |  |  |  |  |  |  |  |  |  |  |  | 10 to 100 | 
6 | COc1cccc(CN2N=NC3C(=O)N(c4ccc(OC)c(OC)c4)C(=O)C32)c1 (stereo not drawn) [Compound 9] | > 100 | 0.08 | 0.1∼1 mg/kg | 0.01∼1 mg/kg | 0.1 | lessen severity of tissue injury | none of the animals treated with the agents exhibited overt signs of distress | decreased | significantly reduced | able to lessen signs of tissue injury | significantly improved the survival | > 100 | > 100 | 0.06 |  |  | > 100 | 0.025 to 0.4 |  | excellent efficacy reducing both serum TNF and IL-6 cytokines
